Assay results as given in patent US20110015164A1, “METHOD OF TREATING MEN WITH METABOLIC AND ANTH[…]” (priority 2004, published 2011).

System: men with abdominal obesity, low to low-normal serum total testosterone levels and the metabolic syndrome
Assay: Placebo-controlled treatment study in abdominally obese men with low to low-normal testosterone and the metabolic syndrome
Settings: for increasing insulin sensitivity, treatment group relative to placebo / lowering triglycerides, treatment group relative to placebo / reducing visceral adipose tissue, treatment group relative to placebo: end of treatment
Experimental: (§1) Approximately 200 men are recruited with abdominal obesity (waist circumference >102 cm), low to low-normal serum total testosterone levels (<450 ng/dL), and the metabolic syndrome per NCEP criteria. NCEP criteria for diagnosis of the metabolic syndrome in men includes 3 of the following 5 components: Fasting glucose≧110 mg/dL, TG≧150 mg/dL, low HDL-C (<40 mg/dL), high waist circumference (>102 cm), BP≧130/≧85 mmHg. Since the study design calls for inclusion of abdominally obese men with waist circumference >102 cm, patients have at least 2 of the other 4 criteria to satisfy the NCEP criteria for the metabolic syndrome. Patients are randomized to placebo or treatment. Fasting blood samples are taken.
Periodic measurements of insulin/glycemic response to oral glucose tolerance test (OGTT) and insulin sensitivity index, fasting plasma glucose (FPG), fasting lipid profile (includes triglycerides, total cholesterol, low-density lipoprotein cholesterol, non-high-density lipoprotein cholesterol, high-density lipoprotein cholesterol, and free fatty acids), visceral fat mass, and blood pressure are taken.
as §1, with “taken. After a placebo run in, the treatment group receives daily administration of 0.5 mg N-(2,5-bis-trifluoromethyl-phenyl)-3-oxo-4-aza-4-methyl-5α-androst-1-ene-17β-carboxamide (dutasteride).” for “taken.”
as §1, with “glucose ≧110” for “glucose≧110”, “taken. After a placebo run in, the treatment group receives daily administration of N-(2-trifluoromethyl-phenyl)-3-oxo-4-aza-4-methyl-5α-androst-1-ene-17β-carboxamide.” for “taken.”
as §1, with “(≦450” for “(<450”, “glucose ≧110” for “glucose≧110”

[1] = Example 6: daily administration (dose not given)

With `CN1C(=O)C=C[C@]2(C)[C@H]3CC[C@]4(C)[C@@H](C(=O)Nc5ccccc5C(F)(F)F)CC[C@H]4[C@@H]3CC[C@@H]12` [N-(2-trifluoromethyl-phenyl)-3-oxo-4-aza-4-methyl-5α-androst-1-ene-17β-carboxamide] as the compound, how does the “tolerability of the treatment” value [1] read?
Its value is “well tolerated”.

What about the “increasing insulin sensitivity, treatment group relative to placebo” value [1] of the same compound?
The value was “significant improvement”.

What about the “lowering triglycerides, treatment group relative to placebo” value [1] of the same compound?
The value was “significant improvement”.

And the “reducing visceral adipose tissue, treatment group relative to placebo” value [1]?
The value was “significant improvement”.

With `Cc1ccc(O[C@H]2C[C@H]3[C@@H]4[C@@H](C)C[C@H]5NC(=O)C=C[C@]5(C)[C@H]4CC[C@]3(C)C2)cc1` [3-oxo-4-aza-7β-methyl-16β-(4-methylphenoxy)-5α-androst-1-ene] as the compound, how does the “tolerability of the treatment” value (Example 7: 25 mg daily) read?
The value was “well tolerated”.

And the “increasing insulin sensitivity, treatment group relative to placebo” value (Example 7: 25 mg daily)?
The value was “significant improvement”.

What about the “lowering triglycerides, treatment group relative to placebo” value (Example 7: 25 mg daily) of the same compound?
The value was “significant improvement”.

What about the “reducing visceral adipose tissue, treatment group relative to placebo” value (Example 7: 25 mg daily) of the same compound?
The value was “significant improvement”.
